Test results from patent US10251398B2, “Improving shelf life and color profile of resin compositions with silver nanoparticles” (priority 2013, dated 2019).

Columns and labels:
[1] = in water; cited from earlier work
[2] = silver benzoate combined with solvent DMAEMA; FIG. 1
Text: FIG. 9 compares the resin compositions of FIG. 7 (A) with the color profiles of various resin compositions prepared with the silver benzoate/DMAEMA mixture added to the base resin before mixing with the catalyst resin to polymerize and cured by either light-curing or self-curing (B).

Q: For C=C(C)C(=O)OC [methyl methacrylate (MMA), methyl methacrylate], which water solubility [1] is on record?
A: The water solubility was “about 1.6 g in 100 g of water”.

Q: Which “change in color over time” value [2] does the source give for O=C([O-])c1ccccc1.[Ag+] [silver benzoate] here?
A: Its value is “become darker over time”.
